Experimental data: the supplement of paper PMC10307832

Legend:
Experiment in all cases: relative viability (nuclei count vs DMSO), 5 days (fraction); higher = more cells survive
[1] = compound: C1/C(=C\C2=CC=CS2)/C(=O)/C(=C/C3=CC=CS3)/C1 + CS(=O)(=O)N1CCN(Cc2cc3nc(-c4cccc5[nH]ncc45)nc(N4CCOCC4)c3s2)CC1 [Pictilisib] (partner 1 µM)
Procedure, shortened: (§1)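 Relative viability was taken as the ratio of nuclei in treated wells to nuclei in vehicle wells. Lung cancer cell lines in 1536-well plates received compounds by pin tool one day after seeding, either one drug alone or a fixed anchor-drug dose plus five library-drug doses (not always all listed) in √10 steps. Nuclei were counted on 4× images after 5 days of treatment, and values are medians of duplicate plates.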

[2] = compound: C[C@]12O[C@H](C[C@]1(O)CO)n1c3ccccc3c3c4c(c5c6ccccc6n2c5c31)CNC4=O [Lestaurtinib] + C[C@]1(O)C[C@@H](c2nc(-c3ccc4ccc(-c5ccccc5)nc4c3)c3c(N)nccn32)C1 [Linsitinib] (partner 1 µM)
Procedure, shortened: as §1

[3] = compound: C[C@]12O[C@H](C[C@]1(O)CO)n1c3ccccc3c3c4c(c5c6ccccc6n2c5c31)CNC4=O [Lestaurtinib] + CC1(C)CCC(c2ccc(Cl)cc2)=C(CN2CCN(c3ccc(C(=O)NS(=O)(=O)c4ccc(N[C@H](CCN5CCOCC5)CSc5ccccc5)c(S(=O)(=O)C(F)(F)F)c4)cc3)CC2)C1 [Navitoclax] (partner 0.5 µM)
Procedure, shortened: as §1

TPCA-1 + Lapatinib = compound: C1=CC(=CC=C1C2=CC(=C(S2)NC(=O)N)C(=O)N)F [TPCA-1] + CS(=O)(=O)CCNCc1ccc(-c2ccc3ncnc(Nc4ccc(OCc5cccc(F)c5)c(Cl)c4)c3c2)o1 [Lapatinib] (partner 2 µM)
Procedure, shortened: as §1

Cell Line | relative viability ([1]; first compound 0.2 µM) | relative viability ([1]; first compound 0.6325 µM) | relative viability ([1]; first compound 2 µM) | relative viability ([1]; first compound 6.325 µM) | relative viability ([1]; first compound 20 µM) | relative viability ([2]; first compound 0.005 µM) | relative viability ([2]; first compound 0.01581 µM) | relative viability ([2]; first compound 0.05 µM) | relative viability ([2]; first compound 0.1581 µM) | relative viability ([2]; first compound 0.5 µM) | relative viability ([3]; first compound 0.005 µM) | relative viability ([3]; first compound 0.01581 µM) | relative viability ([3]; first compound 0.05 µM) | relative viability ([3]; first compound 0.1581 µM) | relative viability ([3]; first compound 0.5 µM) | relative viability (TPCA-1 + Lapatinib; first compound 0.04 µM) | relative viability (TPCA-1 + Lapatinib; first compound 0.1265 µM) | relative viability (TPCA-1 + Lapatinib; first compound 0.4 µM) | relative viability (TPCA-1 + Lapatinib; first compound 1.265 µM) | relative viability (TPCA-1 + Lapatinib; first compound 4 µM)
NCI-H1944 | 0.35 | 0.333 | 0.357 | 0.162 | 0.341 | 1.14 | 1.14 | 0.717 | 0.555 | 0.634 | 1.12 | 1.01 | 0.956 | 0.673 | 0.638 | 0.999 | 0.68 | 0.838 | 0.7 | 0.682
NCI-H1734 | 0.466 | 0.447 | 0.487 | 0.44 | 0.501 | 0.95 | 0.849 | 0.477 | 0.545 | 0.342 | 0.849 | 0.957 | 0.657 | 0.512 | 0.159 | 1.21 | 0.946 | 1.13 | 1.02 | 0.623
A-427 | 0.761 | 0.82 | 0.923 | 0.706 | 0.733 | 1.17 | 1.12 | 1.01 | 0.631 | 0.658 | 1.04 | 0.858 | 0.914 | 0.455 | 0.329 | 1.17 | 0.901 | 1.05 | 0.989 | 0.907
RERF-LC-KJ | 0.566 | 0.583 | 0.583 | 0.42 | 0.494 | 0.964 | 0.946 | 0.535 | 0.619 | 0.516 | 1.24 | 1.1 | 0.792 | 0.618 | 0.641 | 0.966 | 0.79 | 0.808 | 0.809 | 0.765
NCI-H727 | 0.328 | 0.419 | 0.609 | 0.21 | 0.455 | 0.306 | 0.255 | 0.28 | 0.285 | 0.18 | 0.502 | 0.478 | 0.489 | 0.332 | 0.185 | 0.83 | 0.772 | 0.694 | 0.815 | 0.738
LCLC-97TM1 | 0.209 | 0.28 | 0.198 | 0.235 | 0.159 | 0.2 | 0.172 | 0.153 | 0.135 | 0.113 | 0.636 | 0.564 | 0.246 | 0.14 | 0.249 | 1.47 | 0.719 | 1.3 | 0.852 | 0.518
BEN | 0.551 | 0.628 | 0.612 | 0.519 | 0.491 | 0.949 | 1.09 | 0.747 | 0.778 | 0.321 | 0.0676 | 0.07 | 0.0559 | 0.0652 | 0.0525 | 0.731 | 0.5 | 0.672 | 0.793 | 0.661
NCI-H2023 | 0.282 | 0.254 | 0.241 | 0.214 | 0.23 | 0.653 | 0.709 | 0.547 | 0.369 | 0.208 | 1.13 | 1.06 | 0.875 | 0.88 | 0.252 | 1.1 | 0.78 | 1.14 | 0.528 | 0.133
LC-2-ad | 0.464 | 0.525 | 0.482 | 0.51 | 0.425 | 0.824 | 0.819 | 0.372 | 0.323 | 0.157 | 0.344 | 0.402 | 0.201 | 0.137 | 0.107 | 0.986 | 0.933 | 1.02 | 0.953 | 0.186
NCI-H647 | 0.439 | 0.329 | 0.563 | 0.382 | 0.379 | 1.08 | 0.818 | 0.828 | 0.265 | 0.311 | 1.08 | 0.945 | 0.572 | 0.465 | 0.116 | 1.34 | 0.919 | 1.06 | 0.671 | 0.466
NCI-H1755 | 0.475 | 0.436 | 0.435 | 0.353 | 0.386 | 1.02 | 1.05 | 0.776 | 0.429 | 0.215 | 1.01 | 0.944 | 0.633 | 0.265 | 0.223 | 0.991 | 0.984 | 1.02 | 0.898 | 0.689
EPLC-272H | 0.33 | 0.315 | 0.396 | 0.39 | 0.306 | 1.13 | 1.05 | 0.517 | 0.54 | 0.577 | 1.29 | 0.924 | 0.6 | 0.643 | 0.689 | 1.28 | 0.829 | 0.947 | 0.954 | 0.775
NCI-H1437 | 0.437 | 0.402 | 0.406 | 0.404 | 0.36 | 1.02 | 1.24 | 0.739 | 0.775 | 0.302 | 1.13 | 1.2 | 1 | 1.02 | 0.689 | 0.888 | 0.764 | 0.85 | 0.742 | 0.604
EKVX | 0.44 | 0.431 | 0.415 | 0.34 | 0.467 | 1.03 | 1.13 | 0.949 | 1.08 | 0.552 | 1.03 | 0.889 | 0.965 | 0.929 | 0.45 | 0.217 | 0.184 | 0.241 | 0.198 | 0.205
NCI-H1651 | 0.527 | 0.596 | 0.646 |  | 0.516 | 0.985 | 1.06 | 0.969 | 0.695 | 0.438 | 1.12 | 1.12 | 0.79 | 1.05 | 0.471 | 1.02 | 0.746 | 0.951 | 0.848 | 0.8
HCC-15 | 0.776 | 0.748 | 0.843 | 0.642 | 0.758 | 0.98 | 0.958 | 0.71 | 0.529 | 0.159 | 0.786 | 0.883 | 0.668 | 0.653 | 0.467 | 0.942 | 0.856 | 0.908 | 0.819 | 0.52
NCI-H23 | 0.557 | 0.495 | 0.535 | 0.551 | 0.542 | 0.509 | 0.604 | 0.387 | 0.463 | 0.233 | 0.862 | 0.84 | 0.918 | 0.784 | 0.422 | 1.06 | 0.96 | 1.05 | 1 | 0.349
NCI-H1792 | 0.257 | 0.314 | 0.298 |  | 0.247 | 0.757 | 0.56 | 0.386 | 0.243 | 0.144 | 0.322 | 0.86 | 0.428 | 0.23 | 0.166 | 0.964 | 0.893 | 0.843 | 0.9 | 0.455
NCI-H596 | 0.412 | 0.419 | 0.378 | 0.368 | 0.391 | 1.04 | 1.01 | 0.882 | 1.21 | 0.907 | 0.968 | 0.978 | 0.937 | 1.15 | 0.943 | 1.06 | 1.08 | 1.15 | 1.13 | 1.07
NCI-H460 | 0.365 | 0.279 | 0.453 | 0.303 | 0.346 | 0.24 | 0.433 | 0.17 | 0.262 | 0.0291 | 1.37 | 1.01 | 0.694 | 0.894 | 0.544 | 1.26 | 0.982 | 1.12 | 0.9 | 0.335
HCC-366 | 0.132 | 0.137 | 0.204 | 0.191 | 0.0995 | 0.678 | 0.694 | 0.28 | 0.257 | 0.109 | 1.1 | 1.11 | 0.977 | 1.56 | 0.581 | 1.06 | 1.01 | 1.02 | 1.02 | 0.217
NCI-H2085 | 0.449 | 0.487 | 0.534 | 0.405 | 0.432 | 0.952 | 1.01 | 1.04 | 0.901 | 0.819 | 1.15 | 1.36 | 1.1 | 1.27 | 0.979 | 0.825 | 0.732 | 0.889 | 0.7 | 0.646
PC-14 | 0.815 | 0.654 | 0.69 | 0.755 | 0.737 | 0.933 | 1.04 | 0.543 | 0.613 | 0.578 | 1.09 | 1.07 | 0.765 | 0.863 | 0.607 | 0.336 | 0.327 | 0.321 | 0.394 | 0.299
HOP-62 | 0.781 | 0.657 | 0.824 | 0.704 | 0.889 | 0.838 | 0.994 | 0.995 | 1.05 | 0.891 | 0.979 | 1.07 | 0.657 | 0.916 | 0.988 | 1.23 | 0.901 | 1.02 | 0.882 | 0.873
NCI-H2087 | 0.78 | 0.959 | 0.986 | 0.552 | 0.822 | 1 | 0.923 | 0.709 | 0.648 | 0.275 | 0.946 | 0.853 | 0.686 | 0.707 | 0.26 | 1.08 | 0.914 | 0.905 | 0.798 | 0.247
NCI-H1793 | 0.409 | 0.202 | 0.291 | 0.31 | 0.352 | 0.897 | 0.816 | 0.467 | 0.876 | 0.566 | 0.504 | 0.745 | 0.393 | 0.334 | 0.232 | 1.05 | 0.669 | 0.837 | 0.929 | 0.354
PC-3 [JPC-3] | 0.65 | 0.765 | 0.798 | 0.629 | 0.719 | 1.02 | 0.954 | 0.951 | 0.87 | 1 | 0.84 | 0.788 | 0.763 | 0.65 | 0.55 | 0.435 | 0.487 | 0.481 | 0.454 | 0.434
